Consider 23 compounds from patent US20240199587A1, “HETEROCYCLIC COMPOUNDS” (Hoffmann-La Roche Inc., priority 2021, published 2024).

A word on the IC50: it is the midpoint of a concentration-inhibition curve. Low readings indicate inhibition by little substance, high ones a need for much substance.

The target of this test is T1, MAGL (Homo sapiens, UniProt Q99685).
T1 sequence (Q99685 1-303): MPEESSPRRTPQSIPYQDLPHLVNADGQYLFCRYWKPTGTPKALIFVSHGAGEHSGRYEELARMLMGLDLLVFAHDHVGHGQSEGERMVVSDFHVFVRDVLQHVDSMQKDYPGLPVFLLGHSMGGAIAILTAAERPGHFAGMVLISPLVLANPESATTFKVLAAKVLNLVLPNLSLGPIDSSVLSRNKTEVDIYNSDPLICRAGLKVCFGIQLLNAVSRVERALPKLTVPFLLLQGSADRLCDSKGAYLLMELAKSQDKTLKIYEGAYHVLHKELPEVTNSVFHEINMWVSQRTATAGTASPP
The test is described as follows: 2-AG assay (MAGL inhibitory activity, hydrolysis of 2-arachidonoylglycerol to arachidonic acid followed by mass spectrometry). The test is classed as biochemical. The conditions noted are these: 8 μM 2-arachidonoylglycerol, 15 min pre-incubation, 30 min incubation at RT, RapidFire MS readout. The essentials:
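Human MAGL ([…] final) pre-incubated 15 min at RT with compound in 50 mM TRIS, 1 mM EDTA, 0.01% Tween-20, 2.5% DMSO; 8 μM 2-AG then added for 30 min at RT. Acetonitrile quench with d8-arachidonic acid; arachidonic acid measured by RapidFire SPE–MS/MS, activity from arachidonic acid/d8 ratio.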
`O=C(N1CC(OCc2ccc(S(=O)(=O)C(F)(F)F)cc2)C1)N1CC2(CC(n3cnc(C4(O)CC4)n3)C2)C1` [Example 399, [6-[3-(1-hydroxycyclopropyl)-1,2,4-triazol-1-yl]-2-azaspiro[3.3]heptan-2-yl]-[3-[[4-(trifluoromethylsulfonyl)phenyl]methoxy]azetidin-1-yl]methanone]: the IC50 came out at 102 nM.

Regarding `O=C(N1CC2(CC(Cc3ncc(F)cc3F)C2)C1)N1CC2(CC(n3cnc(C4(O)CC4)n3)C2)C1` [Example 402, [6-[(3,5-difluoro-2-pyridyl)methyl]-2-azaspiro[3.3]heptan-2-yl]-[6-[3-(1-hydroxycyclopropyl)-1,2,4-triazol-1-yl]-2-azaspiro[3.3]heptan-2-yl]methanone], the half-maximal inhibitory concentration (IC50) stood at 3.91 nM.

Turning to `CS(=O)(=O)c1ccc(CC2CC3(C2)CN(C(=O)N2CC4(CC(n5cnc(C6(O)CC6)n5)C4)C2)C3)c(F)c1` [Example 403, [6-[(2-fluoro-4-methylsulfonyl-phenyl)methyl]-2-azaspiro[3.3]heptan-2-yl]-[6-[3-(1-hydroxycyclopropyl)-1,2,4-triazol-1-yl]-2-azaspiro[3.3]heptan-2-yl]methanone], inhibition was half-maximal at 1.25 nM (IC50).

`O=C(N1CC2(CC(Cc3ccc(Cl)cn3)C2)C1)N1CC2(CC(n3cnc(C4(O)CC4)n3)C2)C1` [Example 404, [6-[(5-chloro-2-pyridyl)methyl]-2-azaspiro[3.3]heptan-2-yl]-[6-[3-(1-hydroxycyclopropyl)-1,2,4-triazol-1-yl]-2-azaspiro[3.3]heptan-2-yl]methanone] showed an IC50 of 2.33 nM.

In turn, `CS(=N)(=O)c1ccc(CC2CC3(C2)CN(C(=O)N2CC4(CC(n5cnc(C6(O)CC6)n5)C4)C2)C3)cc1` (centres unmarked) [Example 405, [6-[3-(1-hydroxycyclopropyl)-1,2,4-triazol-1-yl]-2-azaspiro[3.3]heptan-2-yl]-[6-[[4-(methylsulfonimidoyl)phenyl]methyl]-2-azaspiro[3.3]heptan-2-yl]methanone] gave a 50% inhibitory concentration (IC50) of 169 nM.

`O=C(N1CC2(CC(Cc3ccc(C(F)(F)F)cn3)C2)C1)N1CC2(CC(n3cnc(C4(O)CC4)n3)C2)C1` [Example 408, [6-[3-(1-hydroxycyclopropyl)-1,2,4-triazol-1-yl]-2-azaspiro[3.3]heptan-2-yl]-[6-[[5-(trifluoromethyl)-2-pyridyl]methyl]-2-azaspiro[3.3]heptan-2-yl]methanone] returned an IC50 of 0.31 nM.

`O=C(N1CC2(CC(Cc3ccc(C(F)(F)F)nn3)C2)C1)N1CC2(CC(n3cnc(C4(O)CC4)n3)C2)C1` [Example 409, [6-[3-(1-hydroxycyclopropyl)-1,2,4-triazol-1-yl]-2-azaspiro[3.3]heptan-2-yl]-[6-[[6-(trifluoromethyl)pyridazin-3-yl]methyl]-2-azaspiro[3.3]heptan-2-yl]methanone]: the IC50 is 27.5 nM.

In turn, `O=C(N1CC2(CC(Cc3cnc(C(F)(F)F)nc3)C2)C1)N1CC2(CC(n3cnc(C4(O)CC4)n3)C2)C1` [Example 410, [6-[3-(1-hydroxycyclopropyl)-1,2,4-triazol-1-yl]-2-azaspiro[3.3]heptan-2-yl]-[6-[[2-(trifluoromethyl)pyrimidin-5-yl]methyl]-2-azaspiro[3.3]heptan-2-yl]methanone] yielded a half-maximal inhibitory concentration (IC50) of 24.9 nM.

The compound `CS(=O)(=O)c1cc(F)cc(CC2CC3(C2)CN(C(=O)N2CC4(CC(n5cnc(C6(O)CC6)n5)C4)C2)C3)c1` [Example 411, [6-[(3-fluoro-5-methylsulfonyl-phenyl)methyl]-2-azaspiro[3.3]heptan-2-yl]-[6-[3-(1-hydroxycyclopropyl)-1,2,4-triazol-1-yl]-2-azaspiro[3.3]heptan-2-yl]methanone] yielded an IC50 of 16.3 nM.

As for `O=C(N1CC2(CC(n3cnc(C4(O)CC4)n3)C2)C1)N1CC2(CN(Cc3ccc(S(=O)(=O)C(F)(F)F)cc3)C2)C1` [Example 412, [6-[3-(1-hydroxycyclopropyl)-1,2,4-triazol-1-yl]-2-azaspiro[3.3]heptan-2-yl]-[6-[[4-(trifluoromethylsulfonyl)phenyl]methyl]-2,6-diazaspiro[3.3]heptan-2-yl]methanone], 7.96 nM corresponded to half-maximal inhibition (IC50).

The compound `CS(=O)(=O)c1cc(Cl)ccc1-c1ccc(C2CN(C(=O)N3CC4(CC(n5cncn5)C4)C3)C2)cc1` [Example 413, [3-[4-(4-chloro-2-methylsulfonyl-phenyl)phenyl]azetidin-1-yl]-[6-(1,2,4-triazol-1-yl)-2-azaspiro[3.3]heptan-2-yl]methanone] came in with an IC50 of 47.8 nM.

As for `CP(C)(=O)c1ccc(COC2CN(C(=O)N3CC4(CC(n5cnc(C(F)(F)F)n5)C4)C3)C2)cc1` [Example 414, [3-[(4-dimethyl-phosphorylphenyl)methoxy]azetidin-1-yl]-[6-[3-(trifluoromethyl)-1,2,4-triazol-1-yl]-2-azaspiro[3.3]heptan-2-yl]methanone], 2960 nM corresponded to half-maximal inhibition (IC50).

`CP(C)(=O)c1ccc(COC2CN(C(=O)N3CC4(CC(n5cnc(C6CC6)n5)C4)C3)C2)cc1` [Example 415, [6-(3-cyclopropyl-1,2,4-triazol-1-yl)-2-azaspiro[3.3]heptan-2-yl]-[3-[(4-dimethylphosphorylphenyl)methoxy]azetidin-1-yl]methanone] displayed an IC50 of 1060 nM.

The compound `CS(=N)(=O)c1cc(F)ccc1CC1CC2(C1)CN(C(=O)N1CC3(CC(n4cnc(C5CC5)n4)C3)C1)C2` (centres unmarked) [Example 416, [6-(3-cyclopropyl-1,2,4-triazol-1-yl)-2-azaspiro[3.3]heptan-2-yl]-[6-[[4-fluoro-2-(methylsulfonimidoyl)phenyl]methyl]-2-azaspiro[3.3]heptan-2-yl]methanone] showed a concentration for half-maximal inhibition (IC50) of 1.12 nM.

Take `CC(C)(C)Cn1nncc1-c1ccc(C2CN(C(=O)N3CC4(CC(n5cncn5)C4)C3)C2)cc1` [Example 417, [3-[4-[3-(2,2-dimethylpropyl)triazol-4-yl]phenyl]azetidin-1-yl]-[6-(1,2,4-triazol-1-yl)-2-azaspiro[3.3]heptan-2-yl]methanone]: the IC50 is 359 nM.

As to `O=C(N1CC(C23CC(c4nnc(C5(C(F)(F)F)CC5)[nH]4)(C2)C3)C1)N1CC2(CC(n3cnc(C(F)(F)F)n3)C2)C1` [Example 418, [3-[3-[5-[1-(trifluoromethyl)cyclopropyl]-4H-1,2,4-triazol-3-yl]-1-bicyclo[1.1.1]pentanyl]azetidin-1-yl]-[6-[3-(trifluoromethyl)-1,2,4-triazol-1-yl]-2-azaspiro[3.3]heptan-2-yl]methanone], the half-maximal inhibitory concentration (IC50) was 4.75 nM.

`O=C(N1CC(C23CC(c4nnc(C5(C(F)(F)F)CC5)[nH]4)(C2)C3)C1)N1CC2(CC(n3cnc(C4CC4)n3)C2)C1` [Example 419, [6-(3-cyclopropyl-1,2,4-triazol-1-yl)-2-azaspiro[3.3]heptan-2-yl]-[3-[3-[5-[1-(trifluoromethyl)cyclopropyl]-4H-1,2,4-triazol-3-yl]-1-bicyclo[1.1.1]pentanyl]azetidin-1-yl]methanone] gave an IC50 of 2.48 nM.

Turning to `O=C(N1CC(C23CC(CNC4(C(F)(F)F)CC4)(C2)C3)C1)N1CC2(CC(n3cnc(C(F)(F)F)n3)C2)C1` [Example 420, [3-[3-[[[1-(trifluoromethyl)cyclopropyl]amino]methyl]-1-bicyclo[1.1.1]pentanyl]azetidin-1-yl]-[6-[3-(trifluoromethyl)-1,2,4-triazol-1-yl]-2-azaspiro[3.3]heptan-2-yl]methanone], the IC50 stood at 0.74 nM.

`O=C(N1CC(C23CC(NCC4(C(F)(F)F)CC4)(C2)C3)C1)N1CC2(CC(n3cnc(C(F)(F)F)n3)C2)C1` [Example 421, [3-[3-[[1-(trifluoromethyl)cyclopropyl]methylamino]-1-bicyclo[1.1.1]pentanyl]azetidin-1-yl]-[6-[3-(trifluoromethyl)-1,2,4-triazol-1-yl]-2-azaspiro[3.3]heptan-2-yl]methanone] had an IC50 of 0.76 nM.

`O=C(N1CC(c2ccc(N3CC(C(F)(F)F)C3)nc2)C1)N1CC2(CC(n3cnc(C(F)(F)F)n3)C2)C1` [Example 422, [3-[6-[3-(trifluoromethyl)azetidin-1-yl]-3-pyridyl]azetidin-1-yl]-[6-[3-(trifluoromethyl)-1,2,4-triazol-1-yl]-2-azaspiro[3.3]heptan-2-yl]methanone] displayed an IC50 of 2.81 nM.

In the case of `O=C(N1CC(c2cnc(N3CC(C(F)(F)F)C3)nc2)C1)N1CC2(CC(n3cnc(C(F)(F)F)n3)C2)C1` [Example 423, [3-[2-[3-(trifluoromethyl)azetidin-1-yl]pyrimidin-5-yl]azetidin-1-yl]-[6-[3-(trifluoromethyl)-1,2,4-triazol-1-yl]-2-azaspiro[3.3]heptan-2-yl]methanone], the IC50 came out at 38.5 nM.

Regarding `O=C(N1CC(c2ccc(NCC3(C(F)(F)F)CC3)nc2)C1)N1CC2(CC(n3cnc(C(F)(F)F)n3)C2)C1` [Example 424, [3-[6-[[1-(trifluoromethyl)cyclopropyl]methylamino]-3-pyridyl]azetidin-1-yl]-[6-[3-(trifluoromethyl)-1,2,4-triazol-1-yl]-2-azaspiro[3.3]heptan-2-yl]methanone], the IC50 was 0.16 nM.

As to `CC1(Cc2nnc(-c3ccc(C4CN(C(=O)N5CC6(CC(n7cnc(C(F)(F)F)n7)C6)C5)C4)cc3)[nH]2)CC1` [Example 425, [3-[4-[5-[(1-methylcyclopropyl)methyl]-4H-1,2,4-triazol-3-yl]phenyl]azetidin-1-yl]-[6-[3-(trifluoromethyl)-1,2,4-triazol-1-yl]-2-azaspiro[3.3]heptan-2-yl]methanone], the IC50 was found to be 5.55 nM.
